Read-outs that look alike come from different tables or passages of the source.
Assays:
[1] = target: TRKa (Homo sapiens (Human), UniProt P04629); assay: Kinase inhibitory activity (Caliper mobility shift), TRKa; format: biochemical
Description: (§1) […] (Shanghai) Co., Ltd. was commissioned to complete the testing example. […] 3.1 A tested compound was accurately weighed and dissolved in 100% DMSO to prepare into a 10 mM solution. […] 3.2.3 A kinase solution of 2.5 times final concentration was prepared with 1×kinase buffer. […] 3.2.5 The reaction plate was shaken and mixed evenly, and then incubated at room temperature for 10 minutes. 3.2.6 Mixed solutions of ATP and kinase substrate 22 of 5 times and 3 times final concentrations were prepared with 1×kinase buffer. 3.2.7 15 μL of mixed solution of ATP and substrate of 5 times or 3 times final concentration was added. 3.2.8 The 384-well plate was centrifuged at 1,000 rpm for 30 seconds, shaken and mixed evenly, and then incubated at room temperature for corresponding time. 3.2.9 The kinase reaction was terminated. 3.2.10 A conversion rate was read by the microplate reader Caliper EZ Reader. Calculation Formula Inhibition rate %=(conversion rate % maximum-conversion rate % sample)/(conversion rate % maximum-conversion rate % minimum)×100 wherein the conversion rate % sample was: a reading number of a conversion rate of a sample; the conversion rate % minimum was: an average value of the negative control well, which represented a reading number of a conversion rate without an enzyme activity well; and the conversion rate % maximum was: an average value of a ratio of the positive control well, which represented a reading number of a conversion rate without a compound inhibition well.

[2] = target: TRKA(G595R) (Homo sapiens (Human), UniProt P04629, G595R); assay: Kinase inhibitory activity (Caliper mobility shift), TRKA(G595R); format: biochemical
TRKA(G595R), sequence (P04629 33-796 G595R): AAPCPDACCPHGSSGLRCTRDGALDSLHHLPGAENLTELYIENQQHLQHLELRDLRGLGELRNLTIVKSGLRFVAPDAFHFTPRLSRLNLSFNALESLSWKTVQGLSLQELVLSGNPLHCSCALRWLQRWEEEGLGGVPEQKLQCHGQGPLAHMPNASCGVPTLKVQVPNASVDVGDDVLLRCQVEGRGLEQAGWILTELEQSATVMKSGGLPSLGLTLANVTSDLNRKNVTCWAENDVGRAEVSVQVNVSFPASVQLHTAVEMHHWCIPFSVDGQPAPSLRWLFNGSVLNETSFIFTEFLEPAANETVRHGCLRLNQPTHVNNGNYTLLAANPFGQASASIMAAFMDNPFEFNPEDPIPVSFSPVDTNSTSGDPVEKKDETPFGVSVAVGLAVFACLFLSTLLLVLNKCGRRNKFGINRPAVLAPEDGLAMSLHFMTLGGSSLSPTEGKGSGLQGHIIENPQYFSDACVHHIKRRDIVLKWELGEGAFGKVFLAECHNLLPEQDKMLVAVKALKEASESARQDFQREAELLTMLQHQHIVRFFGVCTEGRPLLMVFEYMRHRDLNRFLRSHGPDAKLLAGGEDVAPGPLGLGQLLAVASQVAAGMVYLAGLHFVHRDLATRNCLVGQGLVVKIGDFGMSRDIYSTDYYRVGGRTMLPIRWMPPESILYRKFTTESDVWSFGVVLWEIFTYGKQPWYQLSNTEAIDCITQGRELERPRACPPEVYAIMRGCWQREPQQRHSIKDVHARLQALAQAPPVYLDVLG
Description: as §1

[3] = target: TRKC(G623R) (Homo sapiens (Human), UniProt Q16288, G623R); assay: Kinase inhibitory activity (Caliper mobility shift), TRKC(G623R); format: biochemical
TRKC(G623R), sequence (Q16288 32-839 G623R): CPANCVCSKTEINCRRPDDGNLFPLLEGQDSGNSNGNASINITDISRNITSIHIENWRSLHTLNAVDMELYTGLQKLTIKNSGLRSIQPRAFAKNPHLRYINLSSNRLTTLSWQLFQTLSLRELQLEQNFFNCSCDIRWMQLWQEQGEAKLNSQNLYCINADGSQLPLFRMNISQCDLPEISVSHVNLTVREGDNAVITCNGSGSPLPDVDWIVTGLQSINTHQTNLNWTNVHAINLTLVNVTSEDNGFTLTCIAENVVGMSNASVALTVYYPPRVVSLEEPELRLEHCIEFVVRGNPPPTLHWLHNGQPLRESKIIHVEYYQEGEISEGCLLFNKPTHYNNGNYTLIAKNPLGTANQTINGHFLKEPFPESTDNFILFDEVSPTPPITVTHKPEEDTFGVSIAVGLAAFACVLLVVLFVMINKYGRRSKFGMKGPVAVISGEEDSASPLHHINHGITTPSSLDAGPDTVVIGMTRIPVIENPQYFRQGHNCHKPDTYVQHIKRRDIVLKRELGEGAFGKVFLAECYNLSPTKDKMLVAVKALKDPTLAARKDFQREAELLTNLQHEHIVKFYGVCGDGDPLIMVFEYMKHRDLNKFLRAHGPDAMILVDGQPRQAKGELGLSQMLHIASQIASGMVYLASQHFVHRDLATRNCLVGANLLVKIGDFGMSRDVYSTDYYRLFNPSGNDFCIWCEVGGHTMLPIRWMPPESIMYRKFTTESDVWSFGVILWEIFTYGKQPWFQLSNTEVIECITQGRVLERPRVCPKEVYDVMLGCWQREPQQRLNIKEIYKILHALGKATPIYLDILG
Description: Sundia Meditech (Shanghai) Co., Ltd. was commissioned to complete the testing example.
3.1 A tested compound was accurately weighed and dissolved in 100% DMSO to prepare into a 10 mM solution.
250 nL of the compound of 100 times final concentration was transferred to a reaction plate OptiPlate-384F by a dispenser Echo 550.
3.2.3 A kinase solution of 2.5 times final concentration was prepared with 1×kinase buffer.
3.2.4 10 μL of kinase solution of 2.5 times final concentration was added into a compound well and a positive control well respectively; and 10 μL of 1×kinase buffer was added into a negative control well.
3.2.5 The reaction plate was shaken and mixed evenly, and then incubated at room temperature for 10 minutes.
3.2.6 Mixed solutions of ATP and kinase substrate 22 of 5 times and 3 times final concentrations were prepared with 1×kinase buffer.
3.2.7 15 μL of mixed solution of ATP and substrate of 5 times or 3 times final concentration was added.
3.2.8 The 384-well plate was centrifuged at 1,000 rpm for 30 seconds, shaken and mixed evenly, and then incubated at room temperature for corresponding time.
3.2.9 The kinase reaction was terminated.
3.2.10 A conversion rate was read by the microplate reader Caliper EZ Reader.
Calculation Formula Inhibition rate %=(conversion rate % maximum−conversion rate % sample)/(conversion rate % maximum−conversion rate % minimum)×100
wherein the conversion rate % sample was: a reading number of a conversion rate of a sample; the conversion rate % minimum was: an average value of the negative control well, which represented a reading number of a conversion rate without an enzyme activity well; and the conversion rate % maximum was: an average value of a ratio of the positive control well, which represented a reading number of a conversion rate without a compound inhibition well.
Fitting of dose-effect curve: a log value of concentration was used as an X axis, a percentage inhibition rate was used as a Y axis, and the dose-effect curve was fitted by a log (inhibitor) vs. response-variable slope of the analysis software GraphPad Prism 5 (four-parameter model fitting), so as to obtain an IC50 value of each compound on enzyme activity.

[4] = tested on: Ba/F3 EVT6-NTRK3-G623R; assay: In-vitro cell viability (CTG), NTRK mutant cells; format: cell-based; details: Mus musculus, read-out: Ba/F3 EVT6-NTRK3-G623R IC50
Description: (§2) Hefei Precedo Biomedical Technology Co., Ltd. was commissioned to complete the testing example, and NTRK mutant cells used were constructed by this company.
(§3) Inhibitory effects of the compound of the present application on growth of three NTRK mutant cells (Ba/F3 LMNA-NTRK1-G667C, Ba/F3 EVT6-NTRK3-G623R and Ba/F3 LMNA-NTRK1-G595R) were measured.
(§4) Cells in logarithmic growth phase were collected and counted by a blood platelet counter, a cell concentration was adjusted to 3 to 6×10^4 cell/mL, 90 μL of cell suspension was added into a 96-well plate, and cells in the 96-well plate were cultured at 37° C. under 5% CO2 and 95% humidity overnight.
(§5) The to-be-tested compound was prepared into a 10 times drug solution in a medium containing 1% DMSO, with […] and the drug solution was diluted by 3 times in sequence to obtain drug solutions with 9 concentrations in total. […] 10 μL of prepared drug solution was added into each well of the 96-well plate in which the cells were inoculated. Then, 90 μL of medium containing 1% DMSO was added to obtain a drug solution with a highest concentration of 1 μM, and the drug solution was diluted by 3 times in sequence to obtain drug solutions with 9 concentrations in total. A final concentration of DMSO in each well was 0.1%, and three multiple wells were provided for the drug of each concentration. The cells in the 96-well plate in which the drug has been added were cultured at 37° C. under 5% CO2 and 95% humidity for 72 hours, and then subjected to CTG analysis.
(§6) An equal volume of CTG solution was added into each well, the 96-well plate was placed at room temperature for 20 minutes to stabilize a luminescence signal, and a luminescence value was read.
(§7) Data was analyzed by GraphPad Prism 7.0 software, and fitted by nonlinear S-curve regression to obtain a dose-effect curve, from which an IC50 value was calculated. Cell survival rate (%)=(Lum to-be-tested drug−Lum medium control)/(Lum cell control−Lum medium control)×100%.

[5] = tested on: Ba/F3 LMNA-NTRK1-G595R; assay: In-vitro cell viability (CTG), NTRK mutant cells; format: cell-based; details: Mus musculus, read-out: Ba/F3 LMNA-NTRK1-G595R IC50
Description: as §2, §3, §4, §5, §6, §7

[6] = tested on: Ba/F3 LMNA-NTRK1-G667C; assay: In-vitro cell viability (CTG), NTRK mutant cells; format: cell-based; details: Mus musculus, read-out: Ba/F3 LMNA-NTRK1-G667C IC50
Description: as §2, §3, §4, §5, §6, §7

[7] = Stability test in liver microsomes, human; format: in vitro ADME; details: for half-life at 1 μM: 0.5 mg/mL
Description: (§8) A stability of the compound of the present application in liver microsomes of human, rat and mouse was measured.
(§9) 3.1 A buffer and a liver microsome were prepared into an incubation solution according to the following table:
(§10) 3.2 The following two experiments were carried out respectively: a) incubation system added with coenzyme factor NADPH: 25 μL of NADPH (10 mM) was added into an incubation solution (mainly comprising a liver microsome and a phosphate buffer), so that final concentrations of the liver microsome and the NADPH were 0.5 mg/mL and […] respectively; and b) incubation system without coenzyme factor NADPH: 25 μL of phosphate buffer (100 mM) was added into the incubation solution, so that the final concentration of the liver microsome was 0.5 mg/mL. The incubation systems above were preheated at 37° C. for 10 minutes respectively.
(§11) 3.3 2.5 μL of positive control compound or a tested compound solution (100 μM) was added into the incubation systems described in “step 3.2” above respectively for reaction, and the positive control compound was verapamil (purchased from Sigma), so that a final concentration of the tested compound of the present application or the positive control compound was 1 μM. The incubation solution added with the compound was incubated in water at 37° C. in batches.
(§12) 3.4 30 μL of aliquot was taken from a reaction solution after 0.5 minute, 5 minutes, 15 minutes, 30 minutes and 45 minutes respectively, and the reaction was terminated by adding 5 times volume of cold acetonitrile containing 200 nM caffeine and 100 nM tolbutamide. The aliquot was centrifuged at a gravity acceleration of 3,220 g for 40 minutes, and 100 μL of supernatant was mixed with 100 μL of ultrapure water, and then used for LC-MS/MS analysis.
(§13) A peak area was determined by an extracted ion chromatogram. A slope value k was determined by linear regression of a remaining percentage of a parent drug relative to […] an incubation time curve.
(§14) In-vitro half-life periods (t1/2) were respectively calculated and determined according to the slope value, and an average value of the in-vitro half-life periods was converted into an in-vitro intrinsic clearance rate (CLint, represented by μL/min/mg protein).

[8] = Stability test in liver microsomes, rat; format: in vitro ADME; details: for half-life at 1 μM: 0.5 mg/mL
Description: as §8, §9, §10, §11, §12, §13, §14

[9] = Stability test in liver microsomes, mouse; format: in vitro ADME; details: for half-life at 1 μM: 0.5 mg/mL
Description: as §8, §9, §10, §11, §12, §13, §14

TRKa, sequence (P04629 33-796): as the sequence (P04629 33-796 G595R) above, with R563G counted along it

Row | Structure (SMILES) | IC50 [1] | IC50 [2] | IC50 [3] | IC50 ([4]; BaF3, 72 hours, CTG) | IC50 ([5]; BaF3, 72 hours, CTG) | IC50 ([6]; BaF3, 72 hours, CTG) | CLint [7] | IC50 ([4]; BaF3, 72 h) | IC50 ([5]; BaF3, 72 h) | IC50 ([6]; BaF3, 72 h) | microsomal CLint at 1 μM [7] | half-life at 1 μM [7] | % Remaining(45 min) [7] | microsomal CLint at 1 μM [8] | half-life at 1 μM [8] | % Remaining(45 min) [8] | microsomal CLint at 1 μM [9] | half-life at 1 μM [9] | % Remaining(45 min) [9]
1 | C[C@@H]1CCc2ncc(F)cc2[C@H]2CCCN2c2nc3c(cnn3cc2F)C(=O)N1 [Example 1] | 0.62 nM | 2.5 nM | 3.7 nM | – | – | – | – | 190 nM | 13 nM | 5.9 nM | 170 µL/min/mg | 8.17 min | 4.24% | 189 µL/min/mg | 7.35 min | 3.30% | 82.7 µL/min/mg | 16.8 min | 16.15%
2 | C[C@H]1Nc2nc3c(cnn3cc2F)C(=O)NC2CC(C2)Oc2ncccc21 [Example 5, (3^1S,3^3S,6^3E,6^4E,8R)-6^6-fluoro-8-methyl-2-oxo-4,7-diaza-6(3,5)-pyrazolo[1,5-a]pyrimidine-1(2,3)-pyridine-3(1,3)-cyclobutylcyclooctane-5-one] | 127 nM | 561 nM | > 1000 nM | > 1000 nM | > 1000 nM | > 1000 nM | – | – | – | – | – | – | – | – | – | – | – | – | –
3 | C[C@H]1Nc2ccn3nc(F)c(c3n2)C(=O)N[C@H]2C[C@H](C2)Oc2ncc(F)cc21 [Example 6, (3^1S,3^3S,6^3Z,6^4E,8R)-1^5,6^2-difluoro-8-methyl-2-oxo-4,7-diaza-6(3,5)-pyrazolo[1,5-a]pyrimidine-1(2,3)-pyridine-3(1,3)-cyclobutylcyclooctane-5-one] | 0.52 nM | 2.9 nM | 8.2 nM | 536 nM | 116 nM | 40 nM | – | – | – | – | – | – | – | – | – | – | – | – | –

The next lines start with results.

Row | IC50 [1] | IC50 [2] | IC50 [3] | IC50 ([4]; BaF3, 72 hours, CTG) | IC50 ([5]; BaF3, 72 hours, CTG) | IC50 ([6]; BaF3, 72 hours, CTG) | CLint [7] | Structure (SMILES) | IC50 ([4]; BaF3, 72 h) | IC50 ([5]; BaF3, 72 h) | IC50 ([6]; BaF3, 72 h) | microsomal CLint at 1 μM [7] | half-life at 1 μM [7] | % Remaining(45 min) [7] | microsomal CLint at 1 μM [8] | half-life at 1 μM [8] | % Remaining(45 min) [8] | microsomal CLint at 1 μM [9] | half-life at 1 μM [9] | % Remaining(45 min) [9]
4 | 320 nM | > 1000 nM | > 1000 nM | > 1000 nM | > 1000 nM | > 1000 nM | – | C[C@H]1Nc2ccn3ncc(c3n2)C(=O)N[C@H]2C[C@H](C2)Oc2ncccc21 [Example 4, (3^1S,3^3S,6^3E,6^4E,8R)-8-methyl-2-oxo-4,7-diaza-6(3,5)-pyrazolo[1,5-a]pyrimidine-1(2,3)-pyridine-3(1,3)-cyclobutylcyclooctane-5-one] | – | – | – | – | – | – | – | – | – | – | – | –
5 | – | – | – | 145 nM | 12 nM | 6.3 nM | 82.65 µL/min/mg | C[C@@H]1CCc2ncc(F)cc2[C@H]2CCCN2c2ccn3ncc(c3n2)C(=O)N1 [LOXO-195, reference compound] | – | – | – | – | 16.8 min | 16.23% | 152 µL/min/mg | 9.12 min | 4.88% | 186 µL/min/mg | 7.45 min | 1.98%
